For the experiment, the system named is IL-12p70 (IL-12p35/p40 complex). Description: Cytokine inhibiting action using mouse peritoneal macrophages: IL-12p70 production (ELISA). The format is cell-based, mouse (female Balb/c). The note with it: Peritoneal macrophage, 100 ng/mL mouse interferon-γ + 0.05% (v/v) SAC, incubated overnight, 50% production inhibition concentration. As for the experimental part: 1 mL of a 3% (w/v) thioglycolate solution was intraperitoneally administered to a mouse (female Balb/c). 5 or 6 days later, the peritoneal cells of the mouse were collected, and the adherent cells were used for evaluation. 100 ng/mL of mouse interferon-γ, a 0.05% (v/v) suspension of killed Staphylococcus aureus Cowan I strain (SAC) and a compound of the present invention were added thereto and incubated overnight. After the incubation, the survival rate was measured, and each of IL-12p70 (IL-12p35/p40 complex) and TNF-α was quantified by ELISA using the collected culture supernatant to calculate the 50% production inhibition concentration (IC50) (refer to Table 1; meanwhile, the blanks in the table indicate unmeasured).
Background: In an ELISA, binding on a coated surface is turned into a signal by an enzyme label.
A word on the IC50: it is the concentration needed to halve the response being measured. Take `CC(C)c1cccc(/C=N/Nc2cc(N3CCOCC3)c3nc(-c4ccncc4)cn3n2)c1` [Compound 14, N-(3-isopropyl-benzylidene)-N′-(8-morpholin-4-yl-2-pyridin-4-yl-imidazo[1,2-b]pyridazin-6-yl)-hydrazine]: the IC50 came to 130 nM.

On to `C=C(C)c1cccc(/C=N/Nc2cc(N3CCOCC3)c3nc(-c4ccncc4)cn3n2)c1` [Compound 16, N-(3-isopropenyl-benzylidene)-N′-(8-morpholin-4-yl-2-pyridin-4-yl-imidazo[1,2-b]pyridazin-6-yl)-hydrazine], for which the 50% inhibitory concentration (IC50) amounted to 77 nM.

With `Cc1[nH]c2ccc(/C=N/Nc3cc(N4CCOCC4)c4nc(-c5ccncc5)cn4n3)cc2c1C` [Compound 12, N-(2,3-dimethyl-1H-indol-5-yl-methylidene)-N′-(8-morpholin-4-yl-2-pyridin-4-yl-imidazo[1,2-b]pyridazin-6-yl)-hydrazine], the IC50 came out at 140 nM.

In the case of `CC(=O)c1cccc(/C=N/Nc2cc(N3CCOCC3)c3nc(-c4ccncc4)cn3n2)c1` [Compound 17, N-(3-acetyl-benzylidene)-N′-(8-morpholin-4-yl-2-pyridin-4-yl-imidazo[1,2-b]pyridazin-6-yl)-hydrazine], the IC50 came out at 37 nM.

For the compound `CCCCC(C)c1cccc(/C=N/Nc2cc(N3CCOCC3)c3nc(-c4ccncc4)cn3n2)c1` (stereo not shown) [Compound 18, N-[3-(1-methyl-pentyl)-benzylidene]-N′-(8-morpholin-4-yl-2-pyridin-4-yl-imidazo[1,2-b]pyridazin-6-yl)-hydrazine], the IC50 amounted to 1100 nM.

For the compound `C(=N\Nc1cc(N2CCOCC2)c2nc(-c3ccncc3)cn2n1)/c1ccc2cc[nH]c2c1` [Compound 15, N-(1H-indol-6-yl-methylidene)-N′-(8-morpholin-4-yl-2-pyridin-4-yl-imidazo[1,2-b]pyridazin-6-yl)-hydrazine], the IC50 worked out at 54 nM.

With `Cc1cccc(/C=N/Nc2cc(N3CCOCC3)c3nc(-c4cnn(-c5ccccc5)c4C)cn3n2)c1` [Compound 5, N-(3-methyl-benzylidene)-N′-[2-(5-methyl-1-phenyl-1H-pyrazol-4-yl)-8-morpholin-4-yl-imidazo[1,2-b]pyridazin-6-yl]-hydrazine], the concentration for half-maximal inhibition (IC50) was determined as 33 nM.

Take `Cc1cccc(/C=N/Nc2cc(N3CCOCC3)c3nc(-c4ccccc4)cn3n2)c1` [Compound 1, N-(3-methyl-benzylidene)-N′-(8-morpholin-4-yl-2-phenyl-imidazo[1,2-b]pyridazin-6-yl)-hydrazine]: the half-maximal inhibitory concentration (IC50) stood at 32 nM.

`C(=N\Nc1cc(N2CCOCC2)c2nc(-c3ccccc3)cn2n1)/c1c[nH]c2ccccc12` [Compound 2, N-(1H-indol-3-yl-methylidene)-N′-(8-morpholin-4-yl-2-phenyl-imidazo[1,2-b]pyridazin-6-yl)-hydrazine]: the half-inhibitory concentration (IC50) is 36 nM.

Regarding `C=Cc1cccc(/C=N/Nc2cc(N3CCOCC3)c3nc(-c4ccncc4)cn3n2)c1` [Compound 19, N-(3-vinyl-benzylidene)-N-(8-morpholin-4-yl-2-pyridin-4-yl-imidazo[1,2-b]pyridazin-6-yl)-hydrazine], the 50% inhibitory concentration (IC50) was found to be 6.4 nM.

As for `C(=N\Nc1cc(N2CCOCC2)c2nc(-c3ccncc3)cn2n1)/c1c[nH]c2ccccc12` [Compound 6, N-(1H-indol-3-yl-methylidene)-N′-(8-morpholin-4-yl-2-pyridin-4-yl-imidazo[1,2-b]pyridazin-6-yl)-hydrazine], the IC50 was 92 nM.

Take `Cc1cccc(/C=N/Nc2cc(N3CCOCC3)c3nc(-c4ccc(N5CCCC5)cc4)cn3n2)c1` [Compound 7, N-(3-methyl-benzylidene)-N′-[8-morpholin-4-yl-2-(4-pyrrolidin-1-yl-phenyl)-imidazo[1,2-b]pyridazin-6-yl]-hydrazine]: the half-inhibitory concentration (IC50) worked out at 40 nM.

Regarding `Cc1ccc(/C=N/Nc2cc(N3CCOCC3)c3nc(-c4ccncc4)cn3n2)[nH]1` [Compound 24, N-(5-methyl-1H-pyrrol-2-ylmethylene)-N-(8-morpholin-4-yl-2-pyridin-4-yl-imidazo[1,2-b]pyridazin-6-yl)-hydrazine], the half-inhibitory concentration (IC50) stood at 370 nM.

These data come from patent US20120323002A1, “IMIDAZOPYRIDAZINE COMPOUNDS” (AJINOMOTO CO., INC., priority 2009, published 2012).
